In patent US12459940B2, “Oxazole compound as multi-targeted inhibitor of IRAK4 and BTK” (SHANGHAI FOSUN PHARMACEUTICAL INDUSTRIAL DEVELOPMENT CO., …, priority 2019, dated 2025):
pIC50: −log10 of the molar value. Read-outs that look alike come from different tables or passages of the source.

What was measured:
[1] = system: human B-cell lymphoma OCI-LY10 cell subcutaneous xenograft tumor; assay: Human B-cell lymphoma OCI-LY10 cell subcutaneous xenograft tumor mouse model; type: in vivo; settings: 10 mpk, 18 days after the start of administration, p<0.001
Method: The objective of the experiment was to study the efficacy of WX001 as the test drug on human B-cell lymphoma OCI-LY10 cell subcutaneous xenograft tumor in CB17 SCID mouse model.
OCI-LY10 human B-cell lymphoma cells were cultured in a 37° C., 5% CO2 incubator.
OCI-LY10 tumor cells were cultured and passaged, and 0.2 mL (1×10^7 cells) OCI-LY10 cells were subcutaneously inoculated on the right back of each […] (with Matrigel, volume ratio 1:1), and the group administration was started when the average tumor volume reached 167 mm^3. The health status and death of animals were monitored every day, and routine examinations included observing the effects of tumor growth and drug treatment on daily behaviors of animals, such as behavioral activities, food intake and water intake, weight change (weight was measured twice a week), tumor size (tumor volume was measured twice a week), appearance signs or other abnormal conditions.
The experimental index was to investigate whether the tumor growth was inhibited, delayed or cured. Including the measurement of tumor volume (TV), and the calculation of the compound's anti-tumor efficacy using TGI (%) or the relative tumor proliferation rate T/C (%).
TV=0.5a×b^2, a and b represented the long diameter and short diameter of the tumor, respectively.
T/C %=TRTV/CRTV×100% (TRTV: RTV in treatment group; CRTV: RTV in negative control group). Relative tumor volume (RTV) was calculated according to the results of tumor measurement, and the calculation formula was RTV=Vt/V0, wherein V0 was the average tumor volume measured at the time of group administration (i.e., d0), Vt was the average tumor volume at a certain measurement, and TRTV and CRTV were the data taken at the same day.

[2] = system: TMD8 human B-cell lymphoma cells; assay: TMD-8 cell proliferation inhibition (CellTiter-Glo); type: cell-based; settings: TMD8, 72 h, treated for 3 days
Method: TMD8 human B-cell lymphoma cells were cultured in a 37° C., 5% CO2 incubator. The composition of medium was RPMI1640 (GIBCO, Cat #22400-089); the supplementary compositions were 10% FBS (Hyclone, Cat #SH30084.03); 1% PenStrep (Thermo, Cat #SV30010).
(§1) The tumor cell lines OCI-LY10 and TMD8 were used to detect the effect of the compound on inhibiting tumor cell proliferation in vitro. The tumor cell line was cultured in a 37° C., 5% CO2 incubator according to the culture conditions shown, and passaged regularly, then the cells in the logarithmic growth phase were taken, counted, and spread in a 96-well plate (the cells in each well were adjusted to an appropriate concentration, a total of […] per well was added). After incubating overnight in a 37° C., 5% CO2 incubator, drugs with different concentration gradients (10 μL of drug solution was added) were added and treated for 3 days, then 50 μL of CellTiter-Glo working solution was added to each well, and the cell plate was wrapped with aluminum foil to avoid light. The culture plate was shaken on an orbital shaker for 2 minutes to induce cell lysis, and placed at room temperature for 10 minutes to stabilize the luminescence signal, then the luminescence signal was detected on the 2104 EnVision plate reader.
(§2) The Inhibition rate (IR) of the tested compound was calculated using the following formula: IR (%)=(1−(RLU compound−RLU blank control)/(RLU solvent control−RLU blank control))*100%.
(§3) The inhibition rates of different concentrations of the compounds were calculated in Excel, and then the inhibition curves were made by GraphPad Prism software and the related parameters were calculated, including the minimum inhibition rate, the maximum inhibition rate and IC50.

[3] = system: TNF-α production in THP-1 cells; assay: THP-1 cytological TNFa ELISA assay (LPS-stimulated); type: cell-based; settings: Homo sapiens, TNF-α in culture supernatant, 150 ng/mL LPS, 18 hours
Method: THP-1 human acute […] leukemia cells were purchased from ATCC (Cat #TIB-202) and cultured at 37° C. in 5% CO2 incubator. The composition of medium was RPMI1640 (Gibco, Cat #22400-105), and the supplementary compositions were 10% FBS (Gibco, Cat #10091148); 1% PenStrep (Gibco, Cat #15140); 0.05 mM 2-Mercaptoethanol (Sigma, Cat #M6250).
TNF-α Elisa kit was used to detect the content of TNF-α in cell culture supernatant samples. TNF-α was produced by stimulating THP-1 cells with 150 ng/mL LPS (Sigma, Cat #L6529).
THP-1 cells cultured normally at logarithmic growth stage were seeded in a 96-well plate (Corning #3599) at a certain concentration (1*10^5/100 μL) and then put into a cell incubator for incubation. After two hours, 16.7 μL of different concentrations of the compound to be tested (8*final concentration) were added and incubated in an incubator. After one hour, 16.7 μL of 1200 ng/mL LPS was added and incubated in an incubator. After 18 hours, the culture supernatant samples were collected by centrifugation, and the content of TNF-α could be detected by TNF-α Elisa kit. Finally, OD signals (OD450-OD570) were read on envision board reader.
The OD450-OD570 signal value was converted into a percentage inhibition rate. Inhibition rate %=(ZPE−sample)/(ZPE−HPE)*100.
“HPE” refers to the OD450-OD570 signal value of the control well without LPS stimulated cells, and “ZPE” refers to the OD450-OD570 signal value of the control well with LPS stimulated cells. The IC50 value of the compound was calculated by XLFit in the excel add-in. Y=Bottom+(Top−Bottom)/(1+(IC50/X)^HillSlope). Equation: […]

[4] = system: OCI-LY10 human B-cell lymphoma cells; assay: OCI-LY10 cell proliferation inhibition (CellTiter-Glo); type: cell-based; settings: OCI-Ly10, 72 h, treated for 3 days
Method: OCI-LY10 human B-cell lymphoma cells were cultured in a 37° C., 5% CO2 incubator. The composition of medium was IMDM (GIBCO, Cat #12440053); the supplementary compositions were 20% FBS (Hyclone, Cat #SH30084.03); 1% PenStrep (Thermo, Cat #SV30010).
as §1, §2, §3

human IRAK4 = biological target: T1, human IRAK4 (Homo sapiens, UniProt Q9NWZ3); assay: In vitro IRAK4 kinase activity, 33P isotope-labeled kinase activity assay (Reaction Biology Corp); type: biochemical
T1 construct: purchased Reaction Biology Corp
T1 sequence (Q9NWZ3 1-460): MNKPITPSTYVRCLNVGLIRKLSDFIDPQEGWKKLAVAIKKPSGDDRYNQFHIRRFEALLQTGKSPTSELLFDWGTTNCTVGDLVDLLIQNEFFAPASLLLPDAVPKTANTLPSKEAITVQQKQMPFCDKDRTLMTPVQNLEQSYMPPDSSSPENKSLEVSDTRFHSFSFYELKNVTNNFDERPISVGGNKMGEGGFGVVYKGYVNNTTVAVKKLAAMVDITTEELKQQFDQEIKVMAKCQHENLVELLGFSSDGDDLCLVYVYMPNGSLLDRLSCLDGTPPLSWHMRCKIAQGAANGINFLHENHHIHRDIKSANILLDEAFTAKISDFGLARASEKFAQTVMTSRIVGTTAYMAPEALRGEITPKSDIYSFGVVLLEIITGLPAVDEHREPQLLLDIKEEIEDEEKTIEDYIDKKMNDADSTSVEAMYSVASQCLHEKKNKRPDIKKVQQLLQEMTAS
Method: The IC50 values were determined using ^33P isotope-labeled kinase activity assay (Reaction Biology Corp) to evaluate the inhibitory ability of the tested compounds on human IRAK4.
(§4) Buffer conditions: 20 mM Hepes (pH 7.5), 10 mM MgCl2, 1 mM EGTA, 0.02% Brij35, 0.02 mg/mL BSA, 0.1 mM Na3VO4, 2 mM DTT, 1% DMSO.
Test procedure: At room temperature, the tested compound was dissolved in DMSO to prepare a 10 mM solution for later use. The substrate was dissolved in a newly prepared buffer solution, and the tested IRAK4 kinase was added thereto and mixed evenly. The DMSO solution dissolved with the tested compound was added to the above reaction mixture mixed evenly using acoustic technique (Echo 550). After incubation for 15 minutes, ^33P-ATP was added to initiate the reaction.

human BTK = biological target: T2, human BTK (Homo sapiens, UniProt Q06187); assay: In vitro BTK kinase activity, 33P isotope-labeled kinase activity assay (Reaction Biology Corp); type: biochemical; settings: 33P-ATP, 2 hours at room temperature
T2 construct: purchased Reaction Biology Corp
T2 sequence (Q06187 whole entry): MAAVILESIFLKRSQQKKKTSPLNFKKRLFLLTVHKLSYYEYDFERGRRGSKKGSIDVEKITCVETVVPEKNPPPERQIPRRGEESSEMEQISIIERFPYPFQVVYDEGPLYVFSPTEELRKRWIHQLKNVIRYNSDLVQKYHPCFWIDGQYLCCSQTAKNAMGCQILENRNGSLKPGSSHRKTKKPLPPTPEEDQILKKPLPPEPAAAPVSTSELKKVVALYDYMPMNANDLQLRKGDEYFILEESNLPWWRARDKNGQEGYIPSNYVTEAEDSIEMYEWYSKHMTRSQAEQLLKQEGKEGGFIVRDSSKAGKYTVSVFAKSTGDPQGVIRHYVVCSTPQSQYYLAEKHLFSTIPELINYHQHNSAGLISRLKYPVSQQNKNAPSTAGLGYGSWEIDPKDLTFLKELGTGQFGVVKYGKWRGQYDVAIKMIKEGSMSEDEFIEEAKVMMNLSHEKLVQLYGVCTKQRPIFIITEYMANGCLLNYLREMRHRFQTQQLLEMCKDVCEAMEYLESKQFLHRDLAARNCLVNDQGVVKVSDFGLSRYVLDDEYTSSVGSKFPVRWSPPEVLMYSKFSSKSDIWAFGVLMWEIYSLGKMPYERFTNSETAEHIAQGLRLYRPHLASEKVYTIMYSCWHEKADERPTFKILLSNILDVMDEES
Method: The IC50 values were determined using ^33P isotope-labeled kinase activity assay (Reaction Biology Corp) to evaluate the inhibitory ability of the tested compounds on human BTK.
as §4
Test procedure: At room temperature, the tested compound was dissolved in DMSO to prepare a 10 mM solution for later use. The substrate was dissolved in a newly prepared buffer solution, and the tested BTK kinase was added thereto and mixed evenly. The compound dissolved in DMSO was added to the kinase reaction mixture through Echo 550 (Acoustic technology; Nanoliter range). After incubation for 20 minutes at room temperature, ^33P-ATP was added to initiate the reaction. The reaction was carried out at room temperature for 2 hours, and the radioactivity of the reaction liquid point was detected by filtration-binding method with P81 ion exchange filter paper. The kinase activity data were expressed by comparing the kinase activity of the group containing the tested compound with the kinase activity of the blank group (only containing DMSO), and the IC50 value was obtained by curve fitting by Prism4 software (GraphPad), the experimental results are shown in Table 10.

OCI-LY3 cell line = assay: OCI-LY3 cell proliferation inhibition (CTG); type: cell-based; settings: Homo sapiens, incubated for 72 hours
Method: The tumor cell line used in this experiment was provided by Nanjing Cobioer Biotechnology Co., Ltd. See Table 13 below for specific information.
The tumor cell lines OCI-LY3 were used to detect the effect of the compound on inhibiting tumor cell proliferation in vitro. The OCI-LY3 cell line was cultured in the corresponding medium at 37° C. and 5% CO2, and the logarithmic growth phase cells were used in the experimental plating. The cells were collected and centrifuged at 800 rpm for 5 minutes, and the culture medium was re-suspended and spread in a 96-well plate. After incubating overnight in a 37° C., 5% CO2 incubator, the cells with different concentration gradients (10 μL of prepared diluent of the tested compound) were incubated for 72 hours, and the cell culture plates were incubated with CTG reagent at room temperature and away from light for 30 minutes, and then recovered to room temperature. 100 μL/hole of CTG solution was added into the biosafety cabinet away from light, and the plate shaker was shaken and mixed evenly away from light for 2 minutes, and incubated at room temperature away from light for 10 minutes. The luminescence values were read and recorded using the Perkin Elmer Envision 2104 MuLtilabel Reader.
The results of luminescence values measured at each drug concentration were normalized with the luminescence values of the blank control group, and the ratio of this value to the DMSO group was taken as the cell inhibition rate (%). Using GraphPad software, the logarithm of drug concentration (log drug concentration) versus inhibition rate was plotted, and the software automatically fitted and calculated IC50 value and 95% confidence limit value by log (inhibitor) vs. normalized response algorithm of nonlinear regression.

| SMILES | T/C value [1] [%] | TGI value [1] [%] | pIC50 [2] | pIC50 [3] | pIC50 [4] | pIC50 (human IRAK4) | pIC50 (human BTK) | pIC50 (OCI-LY3 cell line) | pIC50 (human IRAK4; 33P-ATP, 120 minutes at room temperature, read-out: IRAK4/IC50) |
| --- | --- | --- | --- | --- | --- | --- | --- | --- | --- |
| C=CC(=O)N1CCC[C@@H](n2nc(-c3ccc(Oc4ccccc4)cc3)c3c(N)ncnc32)C1 [Ibrutinib, reference compound] | 39 | 85 |  |  |  |  |  |  |  |
| Cc1cc(-c2nc(C(=O)Nc3cn4cc(CCC(=O)O)nc4cc3N3CCC(C)(C)CC3)co2)ccn1 [WX016] |  |  | 6.66 | 6.77 | 6.33 | 9.05 | 8.05 |  |  |
| Cc1cc(-c2nc(C(=O)Nc3cn4cc(CCC(C)(C)O)nc4cc3-c3ccccc3)co2)ccn1 [WX021] |  |  | 6.67 | 7.82 | 6.77 | 9.30 | 7.86 |  |  |
| Cc1cc(-c2nc(C(=O)Nc3cn4cc(C(C)(C)O)nc4cc3N3CCCCC3)co2)ccn1 [WX040] |  |  |  | 7.42 | 7.06 | 8.92 | 8.48 | 6.55 |  |
| Cc1cc(-c2nc(C(=O)Nc3cn4cc(CCC(C)(C)O)nc4cc3N3CCC(C(C)(C)O)CC3)co2)ccn1 [WX045] |  |  |  |  | 7.11 |  | 7.54 | 6.57 | 8.47 |
